Experimental data published in patent US9492467B2, “Rapid-acting insulin formulation comprising an oligosaccharide” (ADOCIA, priority 2011, dated 2016).
Counter-ions that a name gives are not always drawn.

Tests used:
[1] = biological target: T1, insulin lispro (hexameric form R6) (Homo sapiens, UniProt P01308, K53P/P52K); test: State of association of insulin lispro by circular dichroism (CD signal at 251 nm); assay type: physicochemical; conditions: added to Humalog, FIG. 27
T1 construct: purchased Eli Lilly Humalog®
T1 sequence (P01308 25-54 P52K/K53P limits assumed): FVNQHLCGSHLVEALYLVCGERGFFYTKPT
T1 sequence (P01308 90-110 limits assumed): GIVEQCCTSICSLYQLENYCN
Description: Circular dichroism makes it possible to study the secondary and quaternary structure of insulin. The insulin monomers organize into dimers and hexamers. […] There are two hexameric forms, form R6 and form T6. […] Loss of the CD signal at 251 nm is connected with destabilization of the hexamer (and therefore the first sign of transformation of the hexamer to dimer).

[2] = biological target: human insulin (hexameric form) (Homo sapiens, UniProt P01308); test: State of association of human insulin by circular dichroism (CD signal at 276 nm); assay type: physicochemical; conditions: absence of m-cresol, FIG. 28
human insulin (hexameric form), sequence (P01308 25-54 limits assumed): as the sequence (P01308 25-54 P52K/K53P limits assumed) above, with K28P, P29K counted along it
Description: Loss of the CD signal at 276 nm is therefore characteristic of destabilization of the hexamer to dimers or monomers.

[3] = form of hexamers, 4° C.; cited from earlier work
humans = conditions: injected subcutaneously; cited from earlier work
[4] = pH; cited from earlier work

With O=C(O)CN(CCN(CC(=O)O)CC(=O)O)CC(=O)O [EDTA, reference compound] the “effect on the CD signal at 251 nm / R6 form of insulin lispro” value [1] was “completely destructures the R6 form of insulin lispro” and the “effect on the hexameric structure of human insulin (CD signal at 276 nm)” value [2] was “complete dissociation of the hexamer to dimers”.

For “human insulin: insulin obtained by synthesis or recombination whose peptide sequence is the sequence of human insulin”, the “stable for” value [3] is given as ~2 years and the hypoglycemic effect after (humans) is given as 60 min.

With O=C(O)CC(O)(CC(=O)O)C(=O)O [citrate, sodium citrate] the “effect on the CD signal at 251 nm / R6 form of insulin lispro” value [1] was “almost no effect”.

In the case of “Insulin lispro: rapid-acting insulin analog, active of Humalog®”, the isoelectric point [4] is listed as 5.3.
